Like-named read-outs stand apart in the source and are kept apart here.
Test system: HCMV
Assay type: cell-based
Experimental: In example herpesvirus PRM assay methods shown herein, cell pellets were lysed in 2% SDS, 100 mM NaCl, 0.5 mM EDTA, 50 mM Tris, pH 8.2, and 50 μg of protein was reduced and alkylated with 25 mM TCEP and 50 mM CAM respectively for 20 min at 70° C. Proteins were then precipitated via methanol chloroform precipitation (Wessel & Flugg, Anal Biochem. 138(1):141-143, 1984), resuspended in 50 mM HEPES, pH 8.2 and digested overnight with trypsin (50:1 protein:enzyme w/w ratio). Digested peptides were desalted by SDB-RPS StageTip as previously described (Lum et al., Cell Syst., 7(6):[…], 2018; Greco et al., Methods Mol Biol 1410:39-63, 2016; Federspiel & Cristea, Methods Mol Biol., 1977:115-143, 2019).
Peptides (1.0 μg on column) were analyzed by LC-MS/MS using a Dionex Ultimate 3000 UHPLC coupled online to an EASYSpray ion source and a Q Exactive HF. Peptides were separated on an EASYSpray C18 column (75 μm×25 cm) heated to 50° C. using a linear gradient of 5% B to 32% B over 60 min at a flow rate of 250 nL/min and were ionized at 1.7 kv. Mobile phase A consisted of 0.1% FA in H2O and mobile phase B consisted of 0.1% FA, 2.9% H2O in ACN.
The PRM method was controlled by a peptide inclusion list with retention time windows of 6 min for selected precursor ions.
The PRM assay was developed and analyzed using the open-source software Skyline (Maclean et al., Bioinformatics 26(7):966-968, 2010). Summed area under the curve of 3-4 transitions per peptide was used for quantitation. Targeted peptides were normalized to host protein loading control peptides. Peptide values for each sample were scaled to the average of each peptide across all runs. The average of multiple peptides was used as the inferred value for the protein measurement when more than one peptide was quantified (Federspiel et al., PLoS Biol. 17(9):e3000437. Doi: 10.1371/journal.pbio.3000437). PRM quantitation data were graphed using the Python Seaborn and Matplotlib libraries.
MRC5 primary human fibroblasts (HFs) (ATCC CCL-171) were used as the model system for HSV-1 and HCMV infections and were cultured in complete growth medium (DMEM supplemented with 10% fetal bovine serum and 1% penicillin-streptomycin antibiotics) at 37° C. and 5% CO2. iSLK.219 cells harboring latent KSHV (a gift from Dr. Britt Glaunsinger, University of California, Berkeley) were grown in complete growth medium supplemented with 500 μg/ml hygromycin (ThermoFisher Scientific, 10687010) at 37° C. and 5% CO2. All cells were used for experiments within a maximum of 10 passages.
Wild type HSV-1 strain 17+ (a gift from Beate Sodeik, Hannover Medical School, Hannover, Germany) was propagated as previously described (Diner et al., 2015). Briefly, PO stocks were generated by electroporating pBAC-HSV-1 into U-2 OS cells. […] In a similar manner, wild type HCMV strain AD169 was produced from BAC electroporation into HFs and working stocks were propagated by infecting HFs at a low level. In both cases, cell-associated virus was released by sonication, combined with supernatant virus, then concentrated by ultracentrifugation (20,000 rpm, 2 hours, 4° C. with SW28 swinging bucket rotor [Beckman Coulter]) over a 10% ficoll (HSV-1) or 20% sorbitol (HCMV) cushion. Virus stock titers were determined by plaque assay for HSV-1 or tissue culture infectious dose (TCID50) for HCMV and infections were performed at a multiplicity of infection (MOI) of 3.
12 hours prior to virus infection or reactivation, cells were treated with either the small molecule drug or DMSO/PBS control at an equivalent volume. […] For infection cycles lasting longer than 24 hours, small molecule drugs were re-added to the cell culture medium every 24 hours. Upon collection, cells were rinsed with PBS, scraped into a microcentrifuge tube, pelleted by centrifugation, and rinsed again with PBS.

With `Nc1c(S(=O)(=O)c2ccccc2)c2nc3ccccc3nc2n1-c1ccc(F)cc1` [CAY10602] the “UL117 (P16770) protein level” value (timepoint 96, L) was 0.3951, the “gH (P12824) protein level” value (timepoint 96, L) was 0.2835 and the “gL (P16832) protein level” value (timepoint 96, L) was 0.2623. For the same compound, the “gM (P16733) protein level” value (timepoint 96, L) was 0.2653, the “gN (P16795) protein level” value (timepoint 96, L) was 0.3 and the “IR10 (P16808) protein level” value (timepoint 96, LL) was 0.2057. For the same compound, the “IR12 (P16810) protein level” value (timepoint 96, LL) was 0.691, the “TRM3 (P16732) protein level” value (timepoint 96, LL) was 0.1638 and the “TRX1 (P16783) protein level” value (timepoint 96, LL) was 0.107. The “TRX2 (P16728) protein level” value (timepoint 96, LL) was 0.1423, the “UL24 (P16760) protein level” value (timepoint 96, LL) was 0.2363 and the “UL40 (P16780) protein level” value (timepoint 96, LL) was 0.5384. For the same compound, the “UL47 (P16784) protein level” value (timepoint 96, LL) was 0.2331, the “UL49 (P16786) protein level” value (timepoint 96, LL) was 0.2651 and the “UL69 (P16749) protein level” value (timepoint 96, LL) was 0.3508. The “UL70 (P17149) protein level” value (timepoint 96, LL) was 0.6104, the “UL83 (P06725) protein level” value (timepoint 96, LL) was 0.1002 and the “UL132 (P69338) protein level” value (timepoint 96, LL) was 0.23. The “US15 (P09718) protein level” value (timepoint 96, LL) was 0.4576, the “CVC2 (P16726) protein level” value (timepoint 120, DE) was 0.2864 and the “DBP (P17147) protein level” value (timepoint 120, DE) was 1.237. The “HELI (P16736) protein level” value (timepoint 120, DE) was 0.9924, the “IR01 (P09710) protein level” value (timepoint 120, DE) was 0.5584 and the “NEC1 (P16794) protein level” value (timepoint 120, DE) was 0.2446. For the same compound, the “NEC2 (P16791) protein level” value (timepoint 120, DE) was 0.5195, the “RIR1 (P16782) protein level” value (timepoint 120, DE) was 0.4577 and the “TRM1 (P16724) protein level” value (timepoint 120, DE) was 0.5809. The “UL4 (P17146) protein level” value (timepoint 120, DE) was 0.3635, the “UL26 (P16762) protein level” value (timepoint 120, DE) was 0.7327 and the “UL32 (P08318) protein level” value (timepoint 120, DE) was 0.3617. The “UL34 (P16812) protein level” value (timepoint 120, DE) was 0.476, the “UL35 (P16766) protein level” value (timepoint 120, DE) was 0.2648 and the “UL38 (P16779) protein level” value (timepoint 120, DE) was 0.7917. For the same compound, the “UL44 (P16790) protein level” value (timepoint 120, DE) was 0.3691, the “UL48 (P16785) protein level” value (timepoint 120, DE) was 0.6239 and the “UL54 (P08546) protein level” value (timepoint 120, DE) was 1.076. For the same compound, the “UL71 (P16823) protein level” value (timepoint 120, DE) was 0.6451, the “UL78 (P16751) protein level” value (timepoint 120, DE) was 0.6099 and the “UL84 (P16727) protein level” value (timepoint 120, DE) was 0.5628. The “UL95 (P16801) protein level” value (timepoint 120, DE) was 0.6017, the “UL96 (P16787) protein level” value (timepoint 120, DE) was 0.8056 and the “UL97 (P16788) protein level” value (timepoint 120, DE) was 0.6064. For the same compound, the “UL98 (P16789) protein level” value (timepoint 120, DE) was 0.7315, the “UL102 (P16827) protein level” value (timepoint 120, DE) was 1.128 and the “UL104 (P16735) protein level” value (timepoint 120, DE) was 0.5969. The “UL112/UL113 (P17151) protein level” value (timepoint 120, DE) was 0.6787, the “UL114 (P16769) protein level” value (timepoint 120, DE) was 0.9011 and the “UL119/UL118 (P16739) protein level” value (timepoint 120, DE) was 0.9064. For the same compound, the “UL128 (P16837) protein level” value (timepoint 120, DE) was 0.537, the “US8 (P09730) protein level” value (timepoint 120, DE) was 0.7858 and the “US9 (P09729) protein level” value (timepoint 120, DE) was 0.8529. For the same compound, the “US12 (P09721) protein level” value (timepoint 120, DE) was 0.4687, the “US13 (P09720) protein level” value (timepoint 120, DE) was 0.889 and the “US14 (P09719) protein level” value (timepoint 120, DE) was 0.6652. The “US18 (P69334) protein level” value (timepoint 120, DE) was 1.01, the “US22 (P09722) protein level” value (timepoint 120, DE) was 0.7763 and the “US23 (P09701) protein level” value (timepoint 120, DE) was 0.7758. The “US24 (P09700) protein level” value (timepoint 120, DE) was 0.8183, the “US34 (P09709) protein level” value (timepoint 120, DE) was 0.4168 and the “gB (P06473) protein level” value (timepoint 120, DE) was 0.6582. For the same compound, the “IRS1 (P09715) protein level” value (timepoint 120, IE) was 0.8786, the “TRS1 (P09695) protein level” value (timepoint 120, IE) was 0.7933 and the “UL13 (P16755) protein level” value (timepoint 120, IE) was 0.4263. For the same compound, the “UL36 (P16767) protein level” value (timepoint 120, IE) was 0.8112, the “UL37 (P16778) protein level” value (timepoint 120, IE) was 0.8715 and the “UL122 (P19893) protein level” value (timepoint 120, IE) was 0.4332. For the same compound, the “UL123 (P13202) protein level” value (timepoint 120, IE) was 0.6795, the “CVC1 (P16799) protein level” value (timepoint 120, L) was 0.5173 and the “GO (P16750) protein level” value (timepoint 120, L) was 0.4236. The “IR11 (P16809) protein level” value (timepoint 120, L) was 1.205, the “MCP (P16729) protein level” value (timepoint 120, L) was 0.4497 and the “SCP (Q7M6N6) protein level” value (timepoint 120, L) was 0.3169. For the same compound, the “TRM2 (P16792) protein level” value (timepoint 120, L) was 0.4883, the “UL22A (P16845) protein level” value (timepoint 120, L) was 0.9462 and the “UL25 (P16761) protein level” value (timepoint 120, L) was 0.5081. The “UL29 (P16764) protein level” value (timepoint 120, L) was 0.8148, the “UL30 (P16765) protein level” value (timepoint 120, L) was 0.4064 and the “UL31 (P16848) protein level” value (timepoint 120, L) was 0.5275. For the same compound, the “UL43 (P16781) protein level” value (timepoint 120, L) was 0.2294, the “UL52 (P16793) protein level” value (timepoint 120, L) was 0.6161 and the “UL76 (P16725) protein level” value (timepoint 120, L) was 0.366. For the same compound, the “UL79 (P16752) protein level” value (timepoint 120, L) was 0.3998, the “UL80 (P16753) protein level” value (timepoint 120, L) was 0.5912 and the “UL82 (P06726) protein level” value (timepoint 120, L) was 0.5561. For the same compound, the “UL87 (P16730) protein level” value (timepoint 120, L) was 0.3281, the “UL88 (P16731) protein level” value (timepoint 120, L) was 0.6339 and the “UL94 (P16800) protein level” value (timepoint 120, L) was 0.5803. For the same compound, the “UL99 (P13200) protein level” value (timepoint 120, L) was 0.4749, the “UL103 (P16734) protein level” value (timepoint 120, L) was 0.5208 and the “UL117 (P16770) protein level” value (timepoint 120, L) was 0.5442. The “gH (P12824) protein level” value (timepoint 120, L) was 0.5849, the “gL (P16832) protein level” value (timepoint 120, L) was 0.5768 and the “gM (P16733) protein level” value (timepoint 120, L) was 0.6508. For the same compound, the “gN (P16795) protein level” value (timepoint 120, L) was 0.6429, the “DUT (P16824) protein level” value (timepoint 120, LL) was 0.5447 and the “IR10 (P16808) protein level” value (timepoint 120, LL) was 0.4495. The “IR12 (P16810) protein level” value (timepoint 120, LL) was 0.797, the “TRM3 (P16732) protein level” value (timepoint 120, LL) was 0.383 and the “TRX1 (P16783) protein level” value (timepoint 120, LL) was 0.3398. For the same compound, the “TRX2 (P16728) protein level” value (timepoint 120, LL) was 0.4401, the “UL24 (P16760) protein level” value (timepoint 120, LL) was 0.5907 and the “UL40 (P16780) protein level” value (timepoint 120, LL) was 0.5612. For the same compound, the “UL47 (P16784) protein level” value (timepoint 120, LL) was 0.5287, the “UL49 (P16786) protein level” value (timepoint 120, LL) was 0.5619 and the “UL69 (P16749) protein level” value (timepoint 120, LL) was 0.6101. For the same compound, the “UL70 (P17149) protein level” value (timepoint 120, LL) was 0.846, the “UL83 (P06725) protein level” value (timepoint 120, LL) was 0.4091 and the “UL132 (P69338) protein level” value (timepoint 120, LL) was 0.4011. The “US15 (P09718) protein level” value (timepoint 120, LL) was 0.6187.
